The structures appear in SMILES notation. A value given as a limit tells only on which side of the number the result lay.

Chain of Human Factor D (P00746 26-253): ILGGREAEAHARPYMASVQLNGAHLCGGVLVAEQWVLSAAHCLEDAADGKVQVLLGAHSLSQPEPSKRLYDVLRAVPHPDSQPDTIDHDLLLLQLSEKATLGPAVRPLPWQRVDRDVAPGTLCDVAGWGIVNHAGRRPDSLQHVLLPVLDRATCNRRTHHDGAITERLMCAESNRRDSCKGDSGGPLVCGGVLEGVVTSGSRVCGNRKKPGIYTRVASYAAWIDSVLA

The target of one assay is Human Factor D (Homo sapiens (Human), UniProt P00746). As to the kind of experiment: Human Factor D Assay. To be noted: Factor D inhibition, assay of Example 10; read-out: IC5 (Stars). Format: biochemical. The essentials:
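Thioester substrate Z-L-Lys-SBz (100 μM) with Ellman's reagent DTNB (100 μM) reports activity of 80 nM human serum-derived enzyme, kinetically at 405 nm over 30 min. Compound preincubated 5 min, room temperature, pH 7.5 Tris/1 M NaCl; IC50 by nonlinear fit of rates.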
Turning to `CSCc1cc(F)c(Br)nc1NC(=O)[C@@H]1C[C@@]2(C)C[C@H]2N1C(=O)Cn1nc(C(C)=O)c2cc(-c3cnc(C)nc3)ccc21` [Compound 438, (1R,5R)-2-(2-(3-Acetyl-5-(2-methylpyrimidin-5-yl)-1H-indazol-1-yl)acetyl)-N-(6-bromo-5-fluoro-3-((methylthio)methyl)pyridin-2-yl)-5-methyl-2-azabicyclo[3.1.0]hexane-3-carboxamide], the IC50 is less than 1 µM.

On to `CC(=O)c1nn(CC(=O)N2C[C@H](F)C[C@H]2C(=O)Nc2cccc(I)n2)c2ccc(-c3cnc(C)nc3)cc12` [Compound 439, (2S,4R)-1-(2-(3-acetyl-5-(2-methylpyrimidin-5-yl)-1H-indazol-1-yl)acetyl)-4-fluoro-N-(6-iodopyridin-2-yl)pyrrolidine-2-carboxamide], for which the IC50 is less than 1 µM.

As to `CC(=O)c1nn(CC(=O)N2C[C@H](F)C[C@H]2C(=O)Nc2ccccn2)c2ccc(-c3cnc(C)nc3)cc12` [Compound 440, (2S,4R)-1-(2-(3-acetyl-5-(2-methylpyrimidin-5-yl)-1H-indazol-1-yl)acetyl)-4-fluoro-N-(pyridin-2-yl)pyrrolidine-2-carboxamide], the IC50 was less than 1 µM.

On to `CC(=O)c1nn(CC(=O)N2[C@H](C(=O)Nc3nc(Br)ccc3C)C[C@@]3(CNc4ccn(CC(F)(F)F)n4)C[C@@H]23)c2c(C)cc(-c3cnc(C)nc3)cc12` [Compound 441, (1R,3S,5R)-2-(2-(3-acetyl-7-methyl-5-(2-methylpyrimidin-5-yl)-1H-indazol-1-yl)acetyl)-N-(6-bromo-3-methylpyridin-2-yl)-5-(((1-(2,2,2-trifluoroethyl)-1H-pyrazol-3-yl)amino)methyl)-2-azabicyclo[3.1.0]hexane-3-carboxamide], for which the IC50 is less than 1 µM.

In the case of `Cc1ncc(-c2ccc3c(cnn3CC(=O)N3C[C@H](F)C[C@H]3C(=O)Nc3cccc(Br)n3)c2)cn1` [Compound 444, (2S,4R)-N-(6-bromopyridin-2-yl)-4-fluoro-1-(2-(5-(2-methylpyrimidin-5-yl)-1H-indazol-1-yl)acetyl)pyrrolidine-2-carboxamide], the IC50 was in the range of 1 to 10 µM.

With `CCc1nn(CC(=O)N2C[C@H](F)C[C@H]2C(=O)Nc2cccc(Br)n2)c2ccc(-c3cnc(C)nc3)cc12` [Compound 445, (2S,4R)-N-(6-bromopyridin-2-yl)-1-(2-(3-ethyl-5-(2-methylpyrimidin-5-yl)-1H-indazol-1-yl)acetyl)-4-fluoropyrrolidine-2-carboxamide], the IC50 is 1 to 10 µM.

`CC(=O)c1nn(CC(=O)N2C[C@H](F)C[C@H]2C(=O)N(C)c2cccc(Br)n2)c2ccc(-c3cnc(C)nc3)cc12` [Compound 446, (2S,4R)-1-(2-(3-acetyl-5-(2-methylpyrimidin-5-yl)-1H-indazol-1-yl)acetyl)-N-(6-bromopyridin-2-yl)-4-fluoro-N-methylpyrrolidine-2-carboxamide]: the IC50 is more than 10 µM.

Turning to `CC(=O)c1nn(CC(=O)N2[C@H](C(=O)Nc3cncc(Br)n3)C[C@@]3(Cc4nc(C)no4)C[C@@H]23)c2c(C)cc(-c3cnc(C)nc3)cc12` [Compound 447, (1R,3S,5R)-2-(2-(3-acetyl-7-methyl-5-(2-methylpyrimidin-5-yl)-1H-indazol-1-yl)acetyl)-N-(6-bromopyrazin-2-yl)-5-((3-methyl-1,2,4-oxadiazol-5-yl)methyl)-2-azabicyclo[3.1.0]hexane-3-carboxamide], the IC50 was less than 1 µM.

`CC(=O)c1cn(CC(=O)N2[C@H](C(=O)Nc3nc(OC(F)(F)F)ccc3C)C[C@@]3(C)C[C@@H]23)c2c(C)cc(-c3cnc(C)nc3)cc12` [Compound 448, (1R,3S,5R)-2-(2-(3-acetyl-7-methyl-5-(2-methylpyrimidin-5-yl)-1H-indo1-1-yl)acetyl)-5-methyl-N-(3-methyl-6-(trifluoromethoxy)pyridin-2-yl)-2-azabicyclo[3.1.0]hexane-3-carboxamide]: the IC50 was less than 1 µM.

On to `CC(=O)c1nn(CC(=O)N2[C@H](C(=O)Nc3cccc(Oc4ccccn4)n3)C[C@@]3(C)C[C@@H]23)c2c(C)cc(-c3cnc(C)nc3)cc12` [Compound 449, (1R,3S,5R)-2-(2-(3-acetyl-7-methyl-5-(2-methylpyrimidin-5-yl)-1H-indazol-1-yl)acetyl)-5-methyl-N-(6-(pyridin-2-yloxy)pyridin-2-yl)-2-azabicyclo[3.1.0]hexane-3-carboxamide], for which the IC50 was less than 1 µM.

On to `CC(=O)c1nn(CC(=O)N2[C@H](C(=O)Nc3nc(-c4ccccn4)ccc3C)C[C@@]3(C)C[C@@H]23)c2ccc(-c3cnc(C)nc3)cc12` [Compound 450, (1R,3S,5R)-2-(2-(3-acetyl-5-(2-methylpyrimidin-5-yl)-1H-indazol-1-yl)acetyl)-5-methyl-N-(5-methyl-[2,2′-bipyridin]-6-yl)-2-azabicyclo[3.1.0]hexane-3-carboxamide], for which the IC50 is 1 to 10 µM.

For `CC(=O)c1nn(CC(=O)N2[C@H](C(=O)Nc3cccc(-n4ccccc4=O)n3)C[C@@]3(C)C[C@@H]23)c2c(C)cc(-c3cnc(C)nc3)cc12` [Compound 451, (1R,3S,5R)-2-(2-(3-acetyl-7-methyl-5-(2-methylpyrimidin-5-yl)-1H-indazol-1-yl)acetyl)-5-methyl-N-(2-oxo-2H-[1,2′-bipyridin]-6′-yl)-2-azabicyclo[3.1.0]hexane-3-carboxamide], the IC50 was less than 1 µM.

With `CC(=O)c1nn(CC(=O)N2[C@H](C(=O)Nc3nc(Br)ccc3C)C[C@@]3(C)C[C@@H]23)c2ccc(-c3ccncc3)cc12` [Compound 452, (1R,3S,5R)-2-(2-(3-acetyl-5-(pyridin-4-yl)-1H-indazol-1-yl)acetyl)-N-(6-bromo-3-methylpyridin-2-yl)-5-methyl-2-azabicyclo[3.1.0]hexane-3-carboxamide], the IC50 was less than 1 µM.

`CC(=O)c1nn(CC(=O)N2[C@H](C(=O)Nc3nc(Br)ccc3C)C[C@@]3(C)C[C@@H]23)c2ccc(-c3ccc(C)cn3)cc12` [Compound 453, (1R,3S,5R)-2-(2-(3-acetyl-5-(5-methylpyridin-2-yl)-1H-indazol-1-yl)acetyl)-N-(6-bromo-3-methylpyridin-2-yl)-5-methyl-2-azabicyclo[3.1.0]hexane-3-carboxamide]: the IC50 was less than 1 µM.

As to `CC(=O)c1nn(CC(=O)N2[C@H](C(=O)Nc3cc(C)cc(Br)n3)C[C@@]3(C)C[C@@H]23)c2c(C)cc(-c3cnc(C)nc3)cc12` [Compound 456, (1R,3S,5R)-2-(2-(3-acetyl-7-methyl-5-(2-methylpyrimidin-5-yl)-1H-indazol-1-yl)acetyl)-N-(6-bromo-4-methylpyridin-2-yl)-5-methyl-2-azabicyclo[3.1.0]hexane-3-carboxamide], the IC50 was less than 1 µM.

As to `CC(=O)c1cn(CC(=O)N2[C@H](C(=O)Nc3nc(Br)c(F)cc3C)C[C@@]3(C)C[C@@H]23)c2ccc(-c3cnc(C)nc3)cc12` [Compound 457, (1R,3S,5R)-2-(2-(3-acetyl-5-(2-methylpyrimidin-5-yl)-1H-indol-1-yl)acetyl)-N-(6-bromo-5-fluoro-3-methylpyridin-2-yl)-5 methyl-2-azabicyclo[3.1.0]hexane-3-carboxamide], the IC50 was less than 1 µM.

Turning to `CC(=O)c1nn(CC(=O)N2[C@H](C(=O)N[C@@H](CC(C)C)C(=O)O)C[C@@]3(C)C[C@@H]23)c2c(C)cc(-c3cnc(C)nc3)cc12` [Compound 458, ((1R,3S,5R)-2-(2-(3-acetyl-7-methyl-5-(2-methylpyrimidin-5-yl)-1H-indazol-1-yl)acetyl)-5-methyl-2-azabicyclo[3.1.0]hexane-3-carbonyl)-L-leucine], the IC50 is less than 1 µM.

With `CC(=O)c1cn(CC(=O)N2[C@H](C(=O)Nc3nc(C(F)(F)F)ccc3C)C[C@@]3(C)C[C@@H]23)c2c(C)cc(-c3cnc(C)nc3)cc12` [Compound 459, (1R,3S,5R)-2-(2-(3-acetyl-7-methyl-5-(2-methylpyrimidin-5-yl)-1H-indol-1-yl)acetyl)-5-methyl-N-(3-methyl-6-(trifluoromethyl)pyridin-2-yl)-2-azabicyclo[3.1.0]hexane-3-carboxamide], the IC50 was less than 1 µM.

The same assay, now with this note: Table 8; Factor D 80 nM, substrate Z-L-Lys-SBz; read-out: IC50.
For `CC(=O)c1nn(CC(=O)N2[C@H](C(=O)Nc3nc(Br)ccc3C)C[C@@]3(CNC(=O)COCCOCCNC(=O)COCCOCCNC(=O)CC[C@H](NC(=O)CCCCCCCCCCCCCCCCC(=O)O)C(=O)O)C[C@@H]23)c2cnc(-c3cnc(C)nc3)cc12` [Compound 442, (S)-1-((1R,3S,5R)-2-(2-(3-acetyl-5-(2-methylpyrimidin-5-yl)-1H-pyrazolo[3,4-c]pyridin-1-yl)acetyl)-3-((6-bromo-3-methylpyridin-2-yl)carbamoyl)-2-azabicyclo[3.1.0]hexan-5-yl)-24-carboxy-3,12,21,26-tetraoxo-5,8,14,17-tetraoxa-2,11,20,25-tetraazatritetracontan-43-oic acid], the IC50 is less than 1 µM.

Consider `CCCCCCCCCCCCCCCC(=O)NCCCC[C@H](NC(=O)[C@H](CCC(=O)O)NC(=O)[C@H](Cc1ccc(O)cc1)NC(=O)[C@H](CCC(=O)O)NC(C)=O)C(=O)N[C@@H](CCC(=O)O)C(=O)N[C@@H](Cc1ccc(O)cc1)C(=O)N[C@@H](CCC(=O)O)C(=O)NC[C@@]12C[C@@H](C(=O)Nc3nc(Br)ccc3C)N(C(=O)Cn3nc(C(C)=O)c4cc(-c5cnc(C)nc5)cc(C)c43)[C@@H]1C2` [Compound 443, (4S,7S,10S,13S,16S,19S,22S)-22-acetamido-4-((((1R,3S,5R)-2-(2-(3-acetyl-7-methyl-5-(2-methylpyrimidin-5-yl)-1H-indazol-1-yl)acetyl)-3-((6-bromo-3-methylpyridin-2-yl)carbamoyl)-2-azabicyclo[3.1.0]hexan-5-yl)methyl)carbamoyl)-10,16-bis(2-carboxyethyl)-7,19-bis(4-hydroxybenzyl)-6,9,12,15,18,21-hexaoxo-13-(4-palmitamidobutyl)-5,8,11,14,17,20-hexaazapentacosanedioic acid], for which the IC50 was 1 to 10 µM.
